From the supplement of paper PMC10307832

Tests used:
Experiment in all cases: relative viability (nuclei count vs DMSO), 5 days (fraction); higher = more cells survive
[1] = compound: CN(C)CC1=CC(=CC=C1)N=C(C2=CC=CC=C2)C3=C(NC4=C3C=CC(=C4)C(=O)N(C)C)O + CS(=O)(=O)CCNCc1ccc(-c2ccc3ncnc(Nc4ccc(OCc5cccc(F)c5)c(Cl)c4)c3c2)o1 [Lapatinib] (partner 2 µM)
In short: (§1)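 Nuclei were stained with Hoechst during a one-step fixation (final 0.05% Triton X-100, 1% formaldehyde, 1 ug/ml Hoechst) carried out 5 days after dosing, then counted on 4× images. The cells, lung cancer lines in 1536-well plates, had been dosed by pin tool the day after seeding with one drug alone or a fixed anchor-drug dose plus five library-drug doses (not always all listed) in √10 steps. Relative viability is the nuclei count in treated wells divided by that in vehicle wells, and each value is the median of duplicate plates.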

[2] = compound: CN(C)CC1=CC(=CC=C1)N=C(C2=CC=CC=C2)C3=C(NC4=C3C=CC(=C4)C(=O)N(C)C)O + O=C(c1cc(Cc2n[nH]c(=O)c3ccccc23)ccc1F)N1CCN(C(=O)C2CC2)CC1 [Olaparib] (partner 8 µM)
In short: as §1

[3] = compound: CN(C)CC1=CC(=CC=C1)N=C(C2=CC=CC=C2)C3=C(NC4=C3C=CC(=C4)C(=O)N(C)C)O + N=C(N)NC(=N)NCCc1ccccc1 [Phenformin] (partner 250 µM)
In short: as §1

[4] = compound: CN(C)CC1=CC(=CC=C1)N=C(C2=CC=CC=C2)C3=C(NC4=C3C=CC(=C4)C(=O)N(C)C)O + CC(=O)Nc1cccc(-n2c(=O)n(C3CC3)c(=O)c3c(Nc4ccc(I)cc4F)n(C)c(=O)c(C)c32)c1 [Trametinib] (partner 0.02 µM)
In short: as §1

| Cell Line | relative viability ([1]; first compound 0.08 µM) | relative viability ([1]; first compound 0.253 µM) | relative viability ([1]; first compound 0.8 µM) | relative viability ([1]; first compound 2.53 µM) | relative viability ([1]; first compound 8 µM) | relative viability ([2]; first compound 0.08 µM) | relative viability ([2]; first compound 0.253 µM) | relative viability ([2]; first compound 0.8 µM) | relative viability ([2]; first compound 2.53 µM) | relative viability ([2]; first compound 8 µM) | relative viability ([3]; first compound 0.08 µM) | relative viability ([3]; first compound 0.253 µM) | relative viability ([3]; first compound 0.8 µM) | relative viability ([3]; first compound 2.53 µM) | relative viability ([3]; first compound 8 µM) | relative viability ([4]; first compound 0.08 µM) | relative viability ([4]; first compound 0.253 µM) | relative viability ([4]; first compound 0.8 µM) | relative viability ([4]; first compound 2.53 µM) | relative viability ([4]; first compound 8 µM) |
| --- | --- | --- | --- | --- | --- | --- | --- | --- | --- | --- | --- | --- | --- | --- | --- | --- | --- | --- | --- | --- |
| NCI-H650 | 1.02 | 1.12 | 1.07 | 0.706 | 0.755 | 0.418 | 0.395 | 0.448 | 0.359 | 0.406 | 0.49 | 0.495 | 0.459 | 0.43 | 0.433 | 0.974 | 1.17 | 0.975 | 0.812 | 0.964 |
| UMC-11 | 1.1 | 0.963 | 0.969 | 0.891 | 0.846 | 0.37 | 0.368 | 0.344 | 0.371 | 0.349 | 0.332 | 0.311 | 0.309 | 0.301 | 0.253 | 0.836 | 0.674 | 0.716 | 0.576 | 0.742 |
| NCI-H520 | 0.774 | 0.801 | 0.766 | 0.791 | 0.724 | 0.378 | 0.352 | 0.284 | 0.298 | 0.286 | 0.477 | 0.564 | 0.508 | 0.429 | 0.347 | 0.493 | 0.703 | 0.664 | 0.594 | 0.497 |
| NCI-H727 | 0.7 | 0.855 | 0.834 | 0.734 | 0.665 |  | 0.697 | 0.672 | 0.672 | 0.86 | 0.595 | 0.474 | 0.53 | 0.578 | 0.573 |  | 0.368 | 0.428 | 0.391 | 0.426 |
| SK-MES-1 | 0.53 | 0.531 | 0.49 | 0.426 | 0.443 | 0.634 | 0.698 | 0.588 | 0.629 | 0.522 | 0.646 | 0.597 | 0.645 | 0.612 | 0.522 | 0.524 | 0.576 | 0.588 | 0.497 | 0.406 |
| NCI-H1975 | 0.948 | 0.81 | 0.835 | 0.742 | 0.951 | 0.773 | 0.829 | 0.815 | 0.755 | 0.754 | 0.378 | 0.407 | 0.357 | 0.393 | 0.36 | 0.368 | 0.323 | 0.304 | 0.298 | 0.238 |
| CAL-12T |  | 0.746 | 0.878 |  | 0.755 | 0.704 | 0.67 | 0.81 | 0.654 | 0.829 | 0.55 | 0.563 | 0.529 | 0.555 | 0.543 | 0.389 | 0.399 | 0.338 | 0.459 | 0.354 |
| NCI-H3122 | 0.96 | 0.971 | 1.01 | 0.983 | 0.997 | 0.587 | 0.587 | 0.678 | 0.59 | 0.721 | 0.386 | 0.38 | 0.391 | 0.302 | 0.354 | 0.225 | 0.203 | 0.235 | 0.245 | 0.243 |
| LU99A | 1.06 | 1 | 1.01 | 0.922 | 0.756 | 0.263 | 0.331 | 0.254 | 0.264 | 0.247 | 0.737 | 0.874 | 0.862 | 0.655 | 0.757 | 0.504 | 0.499 | 0.571 | 0.482 | 0.411 |
| EPLC-272H | 0.927 | 0.996 | 0.845 | 0.955 | 0.989 | 0.696 | 0.888 | 0.689 | 0.664 | 0.583 | 0.323 | 0.283 | 0.226 | 0.302 | 0.347 | 0.335 | 0.318 | 0.289 | 0.304 | 0.266 |
| NCI-H2009 | 1.07 | 0.98 | 1.03 | 0.813 | 0.886 | 0.726 | 0.722 | 0.732 | 0.649 | 0.669 | 0.508 | 0.484 | 0.49 | 0.416 | 0.372 | 0.276 | 0.314 | 0.271 | 0.297 | 0.244 |
| BEN | 0.734 | 0.647 | 0.72 | 0.685 | 0.656 | 1.09 | 0.867 | 1.1 | 0.877 | 0.927 | 0.233 | 0.274 | 0.238 | 0.223 | 0.267 | 1.01 | 0.799 | 1.2 | 1.01 | 0.941 |
| NCI-H1755 | 1.09 | 0.98 | 1.02 | 0.935 | 1.07 | 0.835 | 0.898 | 0.923 | 0.825 | 0.794 | 0.577 | 0.58 | 0.601 | 0.549 | 0.566 | 0.844 | 0.709 | 0.708 | 0.779 | 0.736 |
| NCI-H2405 | 1.06 | 1.09 | 1.15 | 0.999 | 0.963 | 0.888 | 0.896 | 0.935 | 0.753 | 0.757 | 0.358 | 0.387 | 0.378 | 0.347 | 0.249 | 0.642 | 0.634 | 0.593 | 0.605 | 0.535 |
| NCI-H647 | 1.15 | 1.03 | 0.944 | 0.957 | 0.603 | 0.386 | 0.579 | 0.523 | 0.575 | 0.305 | 0.521 | 0.539 | 0.463 | 0.555 | 0.318 | 0.463 | 0.492 | 0.434 | 0.388 | 0.299 |
| COR-L 105 | 0.384 | 0.406 | 0.318 | 0.357 | 0.349 | 0.909 | 0.732 | 0.675 | 0.612 | 0.75 | 0.464 | 0.546 | 0.427 | 0.455 | 0.478 | 0.508 | 0.447 | 0.381 | 0.492 | 0.398 |
